Consider 7 molecules from ChEMBL document CHEMBL5291721, “A preclinical secondary pharmacology resource illuminates target-adverse drug reaction associations of marketed drugs” (Nat Commun, 2023).

A word on the AC50: it is the concentration giving half of the maximal activity seen.

In experiment [1] the target is T1, Adenosine receptor A3 (Homo sapiens, UniProt P0DMS8).
T1 sequence (P0DMS8 whole entry): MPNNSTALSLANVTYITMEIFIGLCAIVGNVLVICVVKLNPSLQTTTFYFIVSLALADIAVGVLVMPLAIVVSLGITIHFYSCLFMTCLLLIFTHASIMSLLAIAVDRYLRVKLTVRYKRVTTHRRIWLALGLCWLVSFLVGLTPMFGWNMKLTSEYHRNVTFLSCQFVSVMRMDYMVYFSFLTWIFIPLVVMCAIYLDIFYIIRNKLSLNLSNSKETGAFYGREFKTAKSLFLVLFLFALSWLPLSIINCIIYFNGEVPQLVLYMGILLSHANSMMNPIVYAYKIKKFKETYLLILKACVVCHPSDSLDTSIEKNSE

Experiment [2] concerns the target T2, Alpha-2A adrenergic receptor (Homo sapiens, UniProt P08913).
T2 sequence (P08913 whole entry): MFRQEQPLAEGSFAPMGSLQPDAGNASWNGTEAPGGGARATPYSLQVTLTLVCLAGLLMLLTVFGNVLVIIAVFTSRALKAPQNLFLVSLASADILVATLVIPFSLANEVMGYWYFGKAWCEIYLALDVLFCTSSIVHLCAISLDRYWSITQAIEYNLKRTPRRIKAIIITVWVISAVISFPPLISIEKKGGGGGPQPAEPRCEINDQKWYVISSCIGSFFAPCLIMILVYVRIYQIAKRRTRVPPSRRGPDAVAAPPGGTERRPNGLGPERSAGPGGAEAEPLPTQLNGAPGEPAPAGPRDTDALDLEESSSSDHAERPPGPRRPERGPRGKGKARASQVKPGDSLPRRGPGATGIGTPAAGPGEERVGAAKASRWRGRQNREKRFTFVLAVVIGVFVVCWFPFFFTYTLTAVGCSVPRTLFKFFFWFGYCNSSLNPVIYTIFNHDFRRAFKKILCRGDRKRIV
In kind it is functional, cell-based.

Experiment [3] has as its target T3, Alpha-2C adrenergic receptor (Homo sapiens, UniProt P18825).
T3 sequence (P18825 whole entry): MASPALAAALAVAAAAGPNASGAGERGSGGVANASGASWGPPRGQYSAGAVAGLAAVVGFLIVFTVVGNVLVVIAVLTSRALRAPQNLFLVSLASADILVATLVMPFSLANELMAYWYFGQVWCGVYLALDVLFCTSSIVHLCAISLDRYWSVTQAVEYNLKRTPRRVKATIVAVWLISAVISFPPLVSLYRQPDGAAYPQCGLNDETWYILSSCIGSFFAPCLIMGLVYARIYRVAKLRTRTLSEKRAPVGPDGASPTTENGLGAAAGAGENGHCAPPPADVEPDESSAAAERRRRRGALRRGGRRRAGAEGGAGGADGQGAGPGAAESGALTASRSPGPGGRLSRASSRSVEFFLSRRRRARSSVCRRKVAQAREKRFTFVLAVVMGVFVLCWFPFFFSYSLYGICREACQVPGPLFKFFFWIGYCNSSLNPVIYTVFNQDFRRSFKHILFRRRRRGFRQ
In kind it is functional.

Experiment [4] has as its target Vasopressin V2 receptor (Homo sapiens, UniProt P30518).
For experiment [5], the target named is T4, Cholecystokinin receptor type A (Homo sapiens, UniProt P32238).
T4 sequence (P32238 whole entry): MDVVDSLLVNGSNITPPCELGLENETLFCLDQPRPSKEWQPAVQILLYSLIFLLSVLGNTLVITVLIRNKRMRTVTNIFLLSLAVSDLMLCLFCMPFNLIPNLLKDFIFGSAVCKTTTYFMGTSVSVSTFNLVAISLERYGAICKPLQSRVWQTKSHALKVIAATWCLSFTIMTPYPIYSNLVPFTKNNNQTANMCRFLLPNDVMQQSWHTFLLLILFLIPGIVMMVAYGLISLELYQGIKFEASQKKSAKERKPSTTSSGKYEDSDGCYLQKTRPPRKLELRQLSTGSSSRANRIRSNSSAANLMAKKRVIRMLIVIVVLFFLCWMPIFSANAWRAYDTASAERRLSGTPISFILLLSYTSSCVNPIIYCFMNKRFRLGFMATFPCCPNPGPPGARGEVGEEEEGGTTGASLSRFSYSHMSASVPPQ

The target in experiment [6] is Neuronal acetylcholine receptor subunit alpha-4 (Homo sapiens, UniProt P43681).
Chain of Neuronal acetylcholine receptor subunit alpha-4 (P43681 whole entry): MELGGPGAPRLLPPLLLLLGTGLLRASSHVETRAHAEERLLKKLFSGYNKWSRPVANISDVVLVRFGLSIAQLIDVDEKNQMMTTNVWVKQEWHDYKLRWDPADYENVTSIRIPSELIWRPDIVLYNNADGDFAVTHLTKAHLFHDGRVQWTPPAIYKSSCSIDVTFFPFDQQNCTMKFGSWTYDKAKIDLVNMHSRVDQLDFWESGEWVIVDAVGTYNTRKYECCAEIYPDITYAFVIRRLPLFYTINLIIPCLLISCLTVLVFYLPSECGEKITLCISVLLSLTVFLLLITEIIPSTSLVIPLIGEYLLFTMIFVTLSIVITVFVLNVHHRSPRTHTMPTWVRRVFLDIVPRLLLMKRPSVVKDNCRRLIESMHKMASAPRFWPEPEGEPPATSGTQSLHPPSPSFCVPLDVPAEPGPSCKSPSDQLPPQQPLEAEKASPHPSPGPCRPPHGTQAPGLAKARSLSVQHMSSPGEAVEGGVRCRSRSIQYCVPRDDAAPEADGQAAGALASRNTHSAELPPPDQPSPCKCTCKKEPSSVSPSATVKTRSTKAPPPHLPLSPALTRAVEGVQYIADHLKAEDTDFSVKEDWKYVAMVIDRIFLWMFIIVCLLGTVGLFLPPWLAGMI
Experiment [7] concerns the target Cannabinoid receptor 1 (Homo sapiens, UniProt P21554). In kind it is functional, cell-based.
The target in experiment [8] is T5, 5-hydroxytryptamine receptor 1A (Homo sapiens, UniProt P08908).
T5 sequence (P08908 whole entry): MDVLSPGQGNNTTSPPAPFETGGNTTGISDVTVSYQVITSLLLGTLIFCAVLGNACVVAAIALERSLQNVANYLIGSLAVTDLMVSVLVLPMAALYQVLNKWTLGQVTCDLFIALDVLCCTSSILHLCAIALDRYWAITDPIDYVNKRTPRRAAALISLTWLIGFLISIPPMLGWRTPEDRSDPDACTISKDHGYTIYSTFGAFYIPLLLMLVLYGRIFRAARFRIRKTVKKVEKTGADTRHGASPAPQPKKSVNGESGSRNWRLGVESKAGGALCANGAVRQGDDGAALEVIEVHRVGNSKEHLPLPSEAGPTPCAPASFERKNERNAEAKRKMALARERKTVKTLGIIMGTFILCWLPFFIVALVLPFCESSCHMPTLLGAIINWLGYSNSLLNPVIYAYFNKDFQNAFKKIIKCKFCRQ
In kind it is functional, cell-based.

Experiment [9] deals with T5, 5-hydroxytryptamine receptor 1A. In kind it is functional, cell-based. This is another data set of the same source.
In experiment [10] the target is Kappa-type opioid receptor (Homo sapiens, UniProt P41145).
Chain of Kappa-type opioid receptor (P41145 whole entry): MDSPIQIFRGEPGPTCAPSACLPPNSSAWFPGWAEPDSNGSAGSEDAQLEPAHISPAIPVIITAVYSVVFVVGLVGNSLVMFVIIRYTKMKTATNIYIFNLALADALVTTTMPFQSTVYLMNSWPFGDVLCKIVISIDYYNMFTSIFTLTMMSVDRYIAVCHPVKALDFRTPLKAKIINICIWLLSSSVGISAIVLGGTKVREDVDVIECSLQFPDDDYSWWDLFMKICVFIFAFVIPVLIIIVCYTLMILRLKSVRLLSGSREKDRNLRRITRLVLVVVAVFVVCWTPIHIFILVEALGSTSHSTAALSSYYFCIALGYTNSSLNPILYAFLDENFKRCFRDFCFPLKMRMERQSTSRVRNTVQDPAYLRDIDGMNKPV
The target in experiment [11] is T6, Equilibrative nucleoside transporter 1 (Homo sapiens, UniProt Q99808).
T6 sequence (Q99808 whole entry): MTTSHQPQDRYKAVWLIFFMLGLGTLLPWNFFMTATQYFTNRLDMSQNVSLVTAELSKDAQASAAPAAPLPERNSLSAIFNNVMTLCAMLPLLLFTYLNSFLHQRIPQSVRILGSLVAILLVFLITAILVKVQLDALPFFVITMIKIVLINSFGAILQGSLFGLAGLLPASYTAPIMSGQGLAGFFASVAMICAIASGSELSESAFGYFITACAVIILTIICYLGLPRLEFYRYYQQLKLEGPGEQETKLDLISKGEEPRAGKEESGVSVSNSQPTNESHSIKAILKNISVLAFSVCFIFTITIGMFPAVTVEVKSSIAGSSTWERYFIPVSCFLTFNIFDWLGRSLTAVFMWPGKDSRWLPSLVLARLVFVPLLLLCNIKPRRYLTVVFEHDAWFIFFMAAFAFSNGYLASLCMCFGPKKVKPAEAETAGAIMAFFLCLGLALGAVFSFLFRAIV

Experiment [12] has as its target D(3) dopamine receptor (Homo sapiens, UniProt P35462).
Also: assay procedure not described here.

Chain of Cannabinoid receptor 1 (P21554 whole entry): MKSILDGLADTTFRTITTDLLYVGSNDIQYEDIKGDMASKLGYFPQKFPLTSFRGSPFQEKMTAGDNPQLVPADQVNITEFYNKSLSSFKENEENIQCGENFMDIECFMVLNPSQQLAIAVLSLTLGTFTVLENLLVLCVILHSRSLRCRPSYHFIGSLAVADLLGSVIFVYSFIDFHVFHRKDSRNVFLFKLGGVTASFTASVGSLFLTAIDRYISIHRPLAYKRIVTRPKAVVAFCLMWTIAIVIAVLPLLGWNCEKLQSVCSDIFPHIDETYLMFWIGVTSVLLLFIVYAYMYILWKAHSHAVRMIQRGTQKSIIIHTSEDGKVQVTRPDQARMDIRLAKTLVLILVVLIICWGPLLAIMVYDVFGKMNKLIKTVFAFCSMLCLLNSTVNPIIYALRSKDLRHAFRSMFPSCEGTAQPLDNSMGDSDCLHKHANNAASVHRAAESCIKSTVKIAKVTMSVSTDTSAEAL
Chain of Vasopressin V2 receptor (P30518 whole entry): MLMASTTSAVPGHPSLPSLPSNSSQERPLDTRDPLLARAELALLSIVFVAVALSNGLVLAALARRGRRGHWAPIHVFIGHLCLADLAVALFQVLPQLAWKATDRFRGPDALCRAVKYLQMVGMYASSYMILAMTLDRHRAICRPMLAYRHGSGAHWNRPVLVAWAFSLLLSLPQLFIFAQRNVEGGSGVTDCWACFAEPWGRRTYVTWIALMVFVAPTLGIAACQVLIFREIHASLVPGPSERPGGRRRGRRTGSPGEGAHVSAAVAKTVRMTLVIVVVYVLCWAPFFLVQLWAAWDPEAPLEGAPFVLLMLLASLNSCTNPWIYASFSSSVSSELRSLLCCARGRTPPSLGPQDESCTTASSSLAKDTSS
Chain of D(3) dopamine receptor (P35462 whole entry): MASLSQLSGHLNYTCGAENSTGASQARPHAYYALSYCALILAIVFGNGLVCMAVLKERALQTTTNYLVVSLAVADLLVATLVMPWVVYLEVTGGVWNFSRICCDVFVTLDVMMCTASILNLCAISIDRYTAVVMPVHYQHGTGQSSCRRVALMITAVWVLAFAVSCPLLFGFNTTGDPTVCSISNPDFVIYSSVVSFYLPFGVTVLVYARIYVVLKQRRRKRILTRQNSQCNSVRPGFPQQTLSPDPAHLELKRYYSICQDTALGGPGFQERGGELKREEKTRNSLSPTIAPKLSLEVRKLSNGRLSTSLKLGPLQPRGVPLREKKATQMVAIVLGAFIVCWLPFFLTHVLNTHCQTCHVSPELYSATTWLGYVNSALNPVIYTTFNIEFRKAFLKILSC

As to `CC(C)(C)NCC(O)COc1cccc2c1CCC(=O)N2` (stereo unspecified) [CARTEOLOL], the half-maximal activity concentration (AC50) in [1], in [2], in experiment [3], in experiment [4], in experiment [5] and in experiment [6] was above 10 µM throughout. Further, the AC50 in [7] was above 30 µM; in [8] it was above 10 µM; in experiment [9] it was 8.8 µM; in experiment [10] it was 11.6 µM; in [11] it was above 10 µM; in experiment [12] it was above 30 µM.
Take `Nc1nc(Cl)nc2c1ncn2[C@H]1C[C@H](O)[C@@H](CO)O1` [CLADRIBINE]: the AC50 in [1], in experiment [2], in experiment [3], in experiment [4], in [5] and in [6] was above 30 µM in each case. The concentration at half-maximal activity (AC50) in experiment [7], in [8], in [9], in experiment [10], in experiment [11] and in [12] was above 30 µM throughout.
For the molecule `Cc1c(OCC(F)(F)F)ccnc1C[S+]([O-])c1nc2ccccc2[nH]1` (stereo unspecified) [LANSOPRAZOLE], the concentration at half-maximal activity (AC50) is 7.77 µM in experiment [1]; above 10 µM in experiment [2]; above 10 µM in experiment [3]; above 30 µM in experiment [4]; above 30 µM in experiment [5]; above 30 µM in experiment [7]. Further, the concentration at half-maximal activity (AC50) in experiment [8] is above 10 µM; in experiment [9], above 10 µM; in experiment [10], 4.88 µM; in [11], above 30 µM; in experiment [12], above 10 µM.
Consider `NC(=O)CN1CC(O)CC1=O` (stereo unspecified) [OXIRACETAM], for which the half-maximal activity concentration (AC50) in experiment [1], in experiment [2], in experiment [3], in experiment [4], in [5] and in experiment [6] was above 30 µM each time. Further, the AC50 in experiment [7], in experiment [8], in experiment [9], in [10], in experiment [11] and in experiment [12] was above 30 µM in each case.
For `C[C@@H]1O[C@@H](O[C@@H]2C=C3CC[C@@H]4[C@H](CC[C@]5(C)[C@@H](c6ccc(=O)oc6)CC[C@]45O)[C@@]3(C)CC2)[C@H](O)[C@H](O)[C@H]1O` [PROSCILLARIDIN], the concentration at half-maximal activity (AC50) in experiment [1], in experiment [2], in experiment [3], in experiment [4], in experiment [5] and in experiment [6] was above 30 µM in each case. Moreover, the half-maximal activity concentration (AC50) in [7], in experiment [8], in [9], in experiment [10] and in [12] was above 30 µM throughout.
For the molecule `C#C[C@]1(O)CC[C@H]2[C@@H]3[C@H](C)CC4=C(CCC(=O)C4)[C@H]3CC[C@@]21C` [TIBOLONE], the AC50 in experiment [1] was 8.1 µM; in [2], above 30 µM; in experiment [3], above 30 µM; in experiment [4] it was above 30 µM; in experiment [5], above 30 µM; in experiment [6] it was above 30 µM. Also, the AC50 is above 30 µM in [7]; above 30 µM in [8]; above 30 µM in [9]; 19 µM in experiment [10]; above 30 µM in experiment [11]; above 30 µM in experiment [12].
As for `COc1cccc(C2(O)CCCCC2CN(C)C)c1` (stereo unspecified) [TRAMADOL], the concentration at half-maximal activity (AC50) in experiment [1] is above 30 µM; in experiment [2], above 10 µM; in [3] it was above 10 µM; in experiment [4] it was above 30 µM; in experiment [5], above 30 µM; in experiment [7], above 30 µM. The AC50 in experiment [8] is above 10 µM; in [9], above 10 µM; in experiment [10], above 10 µM; in experiment [11], above 30 µM; in [12], above 10 µM.
